Like-named read-outs stand apart in the source and are kept apart here.
Assays:
CV-B3 3C^pro = CV-B3 3C^pro (Coxsackievirus B3, UniProt P03313); assay: FRET-based protease assay, CV-B3 3C protease; assay type: biochemical; conditions: 1 mM
CV-A9 [1] = assay: Primary screening for antiviral compounds by cytopathic effects (CPEs); conditions: 10 μM, RD cells, 36 h.p.i.
IRES = conditions: 293T cells, Fluc/Rluc
CV-A9 [2] = assay: Drug combination, Zero Interaction Potency (ZIP) model, SynergyFinder, CV-A9-infected RD cells; conditions: CV-A9 MOI 0.001, RD cells; -10 to 10 additive
CV-A9 [3] = assay: Time-of-addition assay, CV-A9; assay type: cell-based; conditions: 25 μM, RD cells, MOI 0.001
CV-A9 3D^pol = CV-A9 3D^pol (Coxsackievirus A9, UniProt P21404); assay: In vitro RNA primer extension assay using 3D^pol
Chain of CV-A9 3D^pol (P21404 1740-2201): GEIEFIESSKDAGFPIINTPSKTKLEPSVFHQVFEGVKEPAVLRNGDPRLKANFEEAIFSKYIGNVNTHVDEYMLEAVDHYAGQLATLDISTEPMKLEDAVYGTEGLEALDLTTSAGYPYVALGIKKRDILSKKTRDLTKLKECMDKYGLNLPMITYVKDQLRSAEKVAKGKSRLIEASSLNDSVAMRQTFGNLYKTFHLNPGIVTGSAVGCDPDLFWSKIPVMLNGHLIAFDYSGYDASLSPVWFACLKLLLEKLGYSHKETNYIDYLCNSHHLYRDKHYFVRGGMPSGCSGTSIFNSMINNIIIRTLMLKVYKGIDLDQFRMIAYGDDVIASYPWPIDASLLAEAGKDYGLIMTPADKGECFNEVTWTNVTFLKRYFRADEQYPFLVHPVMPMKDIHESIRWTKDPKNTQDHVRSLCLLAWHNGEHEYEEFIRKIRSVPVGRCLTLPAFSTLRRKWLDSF

CV-A9 2A^pro = assay: FRET-based protease assay, CV-A9 2A protease; assay type: biochemical; conditions: pre-incubated 30 min
EV-A71 [4] = assay: Antiviral evaluation in vivo, EV-A71-infected BALB/c young mice (tissue viral load, H&E); conditions: same dosing
in vitro [5] = conditions: African green monkey
IL-6 = assay: Cytokine expression analysis, IL-6 mRNA in CV-A9-infected RD cells; conditions: Homo sapiens, 24 h, read-out: inhibition of CV-A9-induced IL-6 upregulation
in vitro [6] = conditions: human
COX-2 = assay: Cytokine expression analysis, COX-2 mRNA in CV-A9-infected RD cells; assay type: cell-based, Human; conditions: MOI 0.001, 24 h
Experimental: (§1) Figure S13. Effect of bioactive compounds on the expression of MCP-1 and COX-
(§2) 2 induced by CV-A9 infection.
(§3) MCP-1 (a) and COX-2 (b) mRNA levels in RD cells were quantified by RT-qPCR at
(§4) 24 h.p.i following CV-A9 infection (MOI=0.001) and treatment with 50 μM velutin,
(§5) isorhamnetin, or (−)-epicatechin gallate. Representative curves of at least two

PV1 = assay: microbe, parasite or virus in culture; assay type: cell-based, poliovirus 1; conditions: Enterovirus C, RD, read-out: EC50 against PV1
MCP-1 = assay: Cytokine expression analysis, MCP-1 mRNA in CV-A9-infected RD cells; assay type: cell-based, Human; conditions: MOI 0.001, 24 h
Experimental: as §1, §2, §3, §4, §5

CV-B3 = assay: EC50 evaluation against CV-B3 in Vero E6 cells (viral nucleic acid load); assay type: cell-based
CV-A9 [7] = assay: EC50 evaluation against CV-A9 in RD cells (viral nucleic acid load); assay type: cell-based; conditions: read-out: EC50 against CV-A9
TNF-α = assay: Cytokine expression analysis, TNF-α mRNA in CV-A9-infected RD cells
EV-A71 [8] = assay: microbe, parasite or virus in culture; assay type: cell-based; conditions: Enterovirus A, EVA71, RD, read-out: EC50 against EV-A71
Echo-11 = assay: EC50 evaluation against Echo-11 in RD cells; assay type: cell-based
CV-A9 [9] = assay: EC50 evaluation against CV-A9 in Huh-7 cells; assay type: cell-based
[10] = CC50 evaluation, CellTiter-Blue cell viability assay, RD cells; assay type: cell-based; conditions: human, RD cells (human rhabdomyosarcoma), parallel to CV-A9 assay
CV-A9 [11] = assay: organism not typed; assay type: cell-based; conditions: for inhibition at 25 µM: RD
CV-A9 [12] = assay: Post-entry inhibitory effect (viral RNA kinetics), CV-A9 in RD cells; assay type: cell-based; conditions: 25 μM added at 2 h post-infection, cells and supernatants
[13] = read-out: inhibition of CV-A9 attachment
[14] = Vero C1008, read-out: EC50 against CV-B3
[15] = Huh-7, read-out: EC50 against CV-A9

Chain of CV-B3 3C^pro (P03313 1541-1723): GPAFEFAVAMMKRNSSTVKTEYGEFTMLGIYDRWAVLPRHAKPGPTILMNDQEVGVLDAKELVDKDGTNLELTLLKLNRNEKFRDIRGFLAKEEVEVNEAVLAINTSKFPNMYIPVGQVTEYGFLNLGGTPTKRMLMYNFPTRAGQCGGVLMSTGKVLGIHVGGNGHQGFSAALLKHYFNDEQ

SMILES | primary screening result by CV-A9-induced CPEs (CV-A9 [1]) | inhibitory activity against IRES elements (IRES) | ZIP score of the combination with velutin (CV-A9 [2]) | phase-specific activity, time-of-addition, CV-A9 (CV-A9 [3]) | inhibitory activity against 3D^pol (CV-A9 3D^pol) | inhibitory activity against 2A^pro (CV-A9 2A^pro) | intestinal histopathology (H&E) (EV-A71 [4]) | CC50 (in vitro [5]) | inhibition at 50 µM (IL-6) | CC50 (in vitro [6]) | EC50 (PV1) | EC50 (EV-A71 [8]) | CC50 [10] | inhibition at 25 µM (CV-A9 [11]; [13]) | EC50 (CV-B3; [14]) | EC50 (CV-A9 [7]; RD) | EC50 (Echo-11; read-out: EC50 against Echo-11) | EC50 (CV-A9 [9]; [15]) | further results
O=C(O[C@@H]1Cc2c(O)cc(O)cc2O[C@@H]1c1ccc(O)c(O)c1)c1cc(O)c(O)c(O)c1 [(−)-epicatechin gallate] | identified as CV-A9 inhibitors | no inhibitory activity | 1.443 | pan-stage suppression spanning both entry and post-entry phases | no inhibitory activity | no inhibitory activity |  |  |  |  |  |  |  |  |  |  |  |  | inhibition of CV-B3 3C^pro protease activity (CV-B3 3C^pro): about 50%; CC50 (Huh-7 cells): > 100 µM; CC50 (Vero E6 cells): > 100 µM
Nc1ccc(C(=O)Nc2cccc(-c3nc(N4CCOCC4)c4oc5ncccc5c4n3)c2)cn1 [YM-201636, reference compound] |  |  |  |  |  |  | partial shedding of intestinal epithelial cells |  |  |  |  |  |  |  |  |  |  |  | 
COc1cc(-c2oc3cc(O)cc(O)c3c(=O)c2O)ccc1O [isorhamnetin] | identified as CV-A9 inhibitors | no inhibitory activity | 3.126 | pan-stage suppression spanning both entry and post-entry phases | no inhibitory activity | no inhibitory activity |  | > 100 µM | ~60% | > 100 µM | 13.9 µM | 14.6 µM | > 100 µM |  |  |  |  |  | inhibition at 1000 µM (CV-B3 3C^pro): ~50%; inhibition of CV-A9-induced COX-2 upregulation (COX-2; 50 μM): without significant effects; inhibition of CV-A9-induced MCP-1 upregulation (MCP-1; 50 μM): without significant effects; EC50 (CV-B3; Vero C1008, MOI 0.001, read-out: EC50 against CV-B3): 1.62 µM; EC50 (CV-A9 [7]; RD cells, MOI 0.001): 2.23 µM; inhibition of CV-A9-induced TNF-α upregulation (TNF-α; 50 μM, RD cells, MOI 0.001, 24 h): without significant effects; EC50 (Echo-11; MOI 0.005, read-out: EC50 against Echo-11): 20.6 µM; EC50 (CV-A9 [9]; Huh-7 cells, read-out: EC50 against CV-A9): 9.07 µM
Oc1cccc(O)c1O [pyrogallol] | identified as CV-A9 inhibitors |  | 1.684 | exclusively targeted viral attachment |  |  |  | > 100 µM |  | > 100 µM | > 100 µM | > 100 µM | > 100 µM | 32.4% | 1.78 µM | 10.5 µM | > 100 µM | 8.83 µM | inhibition of CV-A9 internalization (CV-A9 [11]; 25 µM): without affecting cellular internalization
COc1cc(O)c2c(=O)cc(-c3ccc(O)c(OC)c3)oc2c1 [velutin] | identified as CV-A9 inhibitors | no inhibitory activity |  | pan-stage suppression spanning both entry and post-entry phases | no inhibitory activity | no inhibitory activity | no hydropic degeneration of the epithelial cells | > 100 µM | 70 to 80% | > 100 µM | 0.96 µM | 2.18 µM | > 100 µM | 40.5% | 2.26 µM | 0.76 µM | 0.69 µM | 3.7 µM | post-entry viral load kinetics, CV-A9 (CV-A9 [12]): significantly suppressed intra- and extracellular viral proliferation; inhibition at 50 µM (COX-2; Homo sapiens, read-out: inhibition of CV-A9-induced COX-2 upregulation): 70 to 80%; inhibition at 50 µM (MCP-1; Homo sapiens, read-out: inhibition of CV-A9-induced MCP-1 upregulation): 20%; inhibition at 25 µM (CV-A9 [11]; read-out: inhibition of CV-A9 internalization): 38.2%; inhibition at 50 µM (TNF-α; Homo sapiens, RD, 24 h, read-out: inhibition of CV-A9-induced TNF-α upregulation): 70 to 80%

Reference: publication PMC12650729 (Biology, 2025)
